Data: PMC5834442, “Identifying inhibitors of the Leishmania inositol phosphorylceramide synthase with antiprotozoal activity using a yeast-based assay and ultra-high throughput screening platform” (Scientific Reports, 2018)
Where two headings read alike, the source gives them in different places.

What was measured:
HepG2 cells = assay: Mammalian cell cytotoxicity assay (CellTiter-Glo); format: cell-based, human; details: for IC50: Homo sapiens, -logIC50 mol against HepG2, read-out: PIC50 HepG2 (converted)
[1] = tested on: L. donovani (MHOM/SD/62/1S-CL2D, LdBOB) axenic amastigotes; assay: Leishmania donovani axenic amastigote dose response assay (resazurin); format: cell-based; details: -logIC50 mol against L. donovani (LdBOB) axenic amastigotes, read-out: pIC50 Axenic (converted)
THP-1 macrophages = assay: Host cell toxicity in the intramacrophage assay; format: cell-based, human; details: for IC50: Homo sapiens, THP-1 host cells in intramacrophage assay, read-out: pIC50 THP-1 (converted)
[2] = tested on: intra-macrophage Leishmania donovani amastigotes; assay: Intramacrophage Leishmania donovani assay (high content imaging); format: cell-based; details: Leishmania donovani
[3] = selectivity: pIC50 axenic minus pIC50 HepG2
[4] = selectivity: pIC50 InMac minus pIC50 THP-1
[5] = intramacrophage L. donovani, read-out: pIC50 InMac (converted)
[6] = −logIC50 M, L. donovani infected THP-1 macrophages, 96 hours, read-out: pIC50 against intra-macrophage L. donovani amastigotes (converted)
[7] = selectivity, pIC50 axenic minus pIC50 HepG2
[8] = selectivity, pIC50 InMac minus pIC50 THP-1
[9] = intramacrophage L. donovani amastigotes, read-out: pIC50 InMac (converted)

## CC(=O)N1N=C(c2ccco2)OC1COc1ccc(Cl)cc1C (stereo not shown) [ST/1451140]
HepG2 cells
  IC50: > 100 µM
HepG2 cells; [3]
  pSI v HepG2: 1.16
[1]
  IC50: 6.92 µM
THP-1 macrophages
  IC50: > 50.1 µM
THP-1 macrophages; [4]
  pSI v THP-1: 0.00
[2]; [5]
  IC50: > 50.1 µM

## O=C(Nc1cccc(S(=O)(=O)Nc2ccccc2Cl)c1)c1ccc([N+](=O)[O-])o1 [ST/579040]
HepG2 cells
  IC50: 22.4 µM
HepG2 cells; [3]
  pSI v HepG2: 1.66
[1]
  IC50: 0.49 µM
THP-1 macrophages
  IC50: 12 µM
THP-1 macrophages; [4]
  pSI v THP-1: 0.03
[2]; [5]
  IC50: 11.2 µM

## O=C(NC1CCN(Cc2ccc(Cl)s2)CC1)N1CCc2cc(Cl)ccc21 [ST/1291407]
HepG2 cells
  IC50: 67.6 µM
HepG2 cells; [3]
  pSI v HepG2: 1.37
[1]
  IC50: 2.88 µM
THP-1 macrophages
  IC50: 6.03 µM
THP-1 macrophages; [4]
  pSI v THP-1: 0.46
[2]; [5]
  IC50: 2.09 µM

## Cc1cc(C)n2nc(S(=O)(=O)Nc3ccccc3[N+](=O)[O-])nc2n1 [ST/512740]
HepG2 cells
  IC50: > 100 µM
HepG2 cells; [3]
  pSI v HepG2: 1.03
[1]
  IC50: 9.33 µM
THP-1 macrophages
  IC50: > 50.1 µM
THP-1 macrophages; [4]
  pSI v THP-1: 0.00
[2]; [5]
  IC50: > 50.1 µM

## CNC(=O)c1ccsc1NC(=O)c1ccc([N+](=O)[O-])s1 [ST/492114]
HepG2 cells
  IC50: > 100 µM
HepG2 cells; [3]
  pSI v HepG2: 2.05
[1]
  IC50: 0.891 µM
THP-1 macrophages
  IC50: > 50.1 µM
THP-1 macrophages; [4]
  pSI v THP-1: 1.55
[2]; [5]
  IC50: 1.41 µM

## CS(=O)(=O)c1oc(-c2ccc(F)cc2)nc1S(=O)(=O)c1ccc(Cl)cc1 [ST/1032211]
HepG2 cells
  IC50: 17.4 µM
HepG2 cells; [3]
  pSI v HepG2: 1.60
[1]
  IC50: 0.437 µM
THP-1 macrophages
  IC50: 3.63 µM
THP-1 macrophages; [4]
  pSI v THP-1: -0.07
[2]; [5]
  IC50: 4.27 µM

## O=C(O)C(F)(F)F.O=c1[nH]ccc2nc(NCCc3c[nH]cn3)nc(Nc3cccc(S(=O)(=O)N4CCOCC4)c3)c12 [N4347-22-1]
HepG2 cells
  pSI v HepG2: 1.00
  IC50: > 100 µM
[1]
  IC50: 10 µM
THP-1 macrophages
  IC50: > 50.1 µM
THP-1 macrophages; [4]
  pSI v THP-1: 0.11
[2]; [5]
  IC50: 38.9 µM

## Cc1ccnc(-c2nn[nH]c2Br)c1 [LK45855-125A1]
HepG2 cells
  IC50: > 100 µM
HepG2 cells; [3]
  pSI v HepG2: 1.76
[1]
  IC50: 1.74 µM
THP-1 macrophages
  IC50: 32.4 µM
THP-1 macrophages; [4]
  pSI v THP-1: -0.01
[2]; [5]
  IC50: 33.1 µM

## CNC(=O)c1ccsc1NC(=O)c1ccc([N+](=O)[O-])s1 [compound 4]
[2]; [6]
  IC50: 1.26 µM

## N#Cc1ccc(N2CCCC[C@H]2c2cccnc2)c([N+](=O)[O-])c1 [compound 5]
[2]; [6]
  IC50: 2 µM

## O=C(O)c1ccccc1Sc1ncnc2scc(-c3ccccc3)c12 [ST/837236]
HepG2 cells
  IC50: > 100 µM
HepG2 cells; [7]
  pSI v HepG2: 1.01
[1]
  IC50: 9.77 µM
THP-1 macrophages
  IC50: > 50.1 µM
THP-1 macrophages; [8]
  pSI v THP-1: 0.09
[2]; [9]
  IC50: 40.7 µM

## NC(=O)c1ccsc1NC(=O)c1ccc([N+](=O)[O-])s1 [compound 3]
[2]; [6]
  IC50: 2 µM

## COC1(C)CCC(=Cc2ccc(Cl)cc2)CC1(O)Cn1ccnc1 (stereo not shown) [ST/1099846]
HepG2 cells
  IC50: 72.4 µM
HepG2 cells; [3]
  pSI v HepG2: 1.39
[1]
  IC50: 2.95 µM
THP-1 macrophages
  IC50: > 50.1 µM

## CC(C)CCN1C(=O)C(N)C(=O)N(CC2CCCCC2)c2ccccc21 (stereo not shown) [VMTA/1987/36/2]
HepG2 cells
  IC50: 81.3 µM
HepG2 cells; [7]
  pSI v HepG2: 1.61
[1]
  IC50: 2 µM
THP-1 macrophages
  IC50: > 50.1 µM
THP-1 macrophages; [8]
  pSI v THP-1: 0.79
[2]; [9]
  IC50: 8.13 µM

## COc1ccc(S(=O)(=O)Nc2cc([N+](=O)[O-])ccc2Cl)cc1C(C)C [ST/1153644]
HepG2 cells
  IC50: > 100 µM
HepG2 cells; [3]
  pSI v HepG2: 1.00
[1]
  IC50: 10 µM
THP-1 macrophages
  IC50: > 50.1 µM
THP-1 macrophages; [4]
  pSI v THP-1: 0.11
[2]; [5]
  IC50: 38.9 µM

## COc1cc(OC)cc(C(=O)Nc2nnc(-c3ccccc3Cl)o2)c1 [ST/709938]
HepG2 cells
  IC50: 85.1 µM
HepG2 cells; [3]
  pSI v HepG2: 2.04
[1]
  IC50: 0.776 µM
THP-1 macrophages
  IC50: > 50.1 µM
THP-1 macrophages; [4]
  pSI v THP-1: 0.28
[2]; [5]
  IC50: 26.3 µM

## COc1cccc(-c2csc(NC(=O)c3cccc(Cl)c3)c2C(=O)O)c1 [ST/266497]
HepG2 cells
  IC50: > 100 µM
HepG2 cells; [3]
  pSI v HepG2: 1.15
[1]
  IC50: 7.08 µM
THP-1 macrophages
  IC50: > 50.1 µM
THP-1 macrophages; [4]
  pSI v THP-1: 0.04
[2]; [5]
  IC50: 45.7 µM

## COc1ccc(CN2CCN(S(=O)(=O)c3ccc(OC(F)(F)F)cc3)CC2)cc1 [SC/122159]
HepG2 cells
  IC50: > 100 µM
HepG2 cells; [3]
  pSI v HepG2: 2.56
[1]
  IC50: 0.275 µM
THP-1 macrophages
  IC50: > 50.1 µM
THP-1 macrophages; [4]
  pSI v THP-1: 0.15
[2]; [5]
  IC50: 35.5 µM

## CC(=O)N1N=C(COc2ccc(Cl)cc2C)OC1c1cccs1 (stereo not shown) [ST/1455408]
HepG2 cells
  IC50: 97.7 µM
HepG2 cells; [3]
  pSI v HepG2: 1.10
[1]
  IC50: 7.76 µM
THP-1 macrophages
  IC50: > 50.1 µM
THP-1 macrophages; [4]
  pSI v THP-1: 0.00
[2]; [5]
  IC50: > 50.1 µM

## CN(C)S(=O)(=O)c1ccc(Cl)c(NS(=O)(=O)c2ccc(C(C)(C)C)cc2)c1 [ST/1238223]
HepG2 cells
  IC50: > 100 µM
HepG2 cells; [3]
  pSI v HepG2: 1.17
[1]
  IC50: 6.76 µM
THP-1 macrophages
  IC50: > 50.1 µM
THP-1 macrophages; [4]
  pSI v THP-1: 0.00
[2]; [5]
  IC50: > 50.1 µM

## N#Cc1ccc(N2CCCC[C@H]2c2cccnc2)c([N+](=O)[O-])c1.O=C(O)C(F)(F)F.O=C(O)C(F)(F)F [MA102475-064A1B46]
HepG2 cells
  pSI v HepG2: 1.28
  IC50: 95.5 µM
[1]
  IC50: 5.01 µM
THP-1 macrophages
  IC50: > 50.1 µM
THP-1 macrophages; [4]
  pSI v THP-1: 1.39
[2]; [5]
  IC50: 2.04 µM

## Cc1nc(-c2ccccc2)c(-c2ccnc(Nc3cc(S(N)(=O)=O)ccc3C)n2)s1 [N6896-93-B1]
HepG2 cells
  IC50: > 100 µM
HepG2 cells; [3]
  pSI v HepG2: 1.81
[1]
  IC50: 1.55 µM

## Cc1ncccc1Oc1ncc(Cl)cc1S(=O)(=O)Nc1cccc(Cl)c1F [AV207107-107A1]
HepG2 cells
  IC50: > 100 µM
HepG2 cells; [3]
  pSI v HepG2: 1.09
[1]
  IC50: 8.13 µM
THP-1 macrophages
  IC50: > 50.1 µM
THP-1 macrophages; [4]
  pSI v THP-1: 0.00
[2]; [5]
  IC50: > 50.1 µM

## O=C(c1cccc(F)c1)c1coc2ccc(Br)cc2c1=O [ST/472875]
HepG2 cells
  IC50: 63.1 µM
HepG2 cells; [3]
  pSI v HepG2: 1.44
[1]
  IC50: 2.29 µM

## N#Cc1ccc(C=C(C(=O)Nc2ccccc2Cl)C(=O)Nc2ccccc2Cl)cc1 [ST/786454]
HepG2 cells
  IC50: 3.63 µM
HepG2 cells; [3]
  pSI v HepG2: 1.69
[1]
  IC50: 0.0741 µM

## COc1ccc(Cl)cc1NC(=O)Nc1cccc(Br)c1 [C2180/12/1]
HepG2 cells
  IC50: 66.1 µM
HepG2 cells; [3]
  pSI v HepG2: 1.14
[1]
  IC50: 4.79 µM

## O=C(Nc1cc(-c2nc3ccccc3[nH]2)ccc1Cl)c1ccc(Cl)c([N+](=O)[O-])c1 [ST/1193938]
HepG2 cells
  IC50: 22.9 µM
HepG2 cells; [3]
  pSI v HepG2: 0.42
[1]
  IC50: 8.71 µM

## O=[N+]([O-])c1cc(NS(=O)(=O)c2ccc(Cl)c(C(F)(F)F)c2)ccc1F [ST/654862]
HepG2 cells
  IC50: 38.9 µM
HepG2 cells; [3]
  pSI v HepG2: 0.97
[1]
  IC50: 4.17 µM

## O=C(Nc1scc(-c2ccc(Br)cc2)c1C(=O)O)c1ccccc1F [ST/656010]
HepG2 cells
  IC50: > 100 µM
HepG2 cells; [3]
  pSI v HepG2: 1.08
[1]
  IC50: 8.32 µM
THP-1 macrophages
  IC50: > 50.1 µM
THP-1 macrophages; [4]
  pSI v THP-1: 0.00
[2]; [5]
  IC50: > 50.1 µM

## O=C(Nc1ccc(OC(F)(F)F)cc1)Nc1ccc([N+](=O)[O-])cc1 [ST/500242]
HepG2 cells
  IC50: 14.1 µM
HepG2 cells; [3]
  pSI v HepG2: 0.52
[1]
  IC50: 4.27 µM

## O=C(O)C(F)(F)F.O=S(=O)(c1ccc2c(c1)CCN(Cc1ccc(F)cc1)CC2)n1cccc1 [CS100462-069A11B16]
HepG2 cells
  pSI v HepG2: 3.64
  IC50: > 100 µM
[1]
  IC50: 0.0229 µM
THP-1 macrophages
  IC50: 31.6 µM
THP-1 macrophages; [4]
  pSI v THP-1: 0.98
[2]; [5]
  IC50: 3.31 µM

## O=S(=O)(Nc1cccc(F)c1CN1CCC(F)(F)C1)c1ccc(Cl)c(Cl)c1 [DS105792-004A6B1]
HepG2 cells
  IC50: 47.9 µM
HepG2 cells; [3]
  pSI v HepG2: 0.72
[1]
  IC50: 9.12 µM

## Cc1ccc(-c2cnc(N)c(-c3nc4ccc(F)cc4[nH]3)c2)cc1 [HL209813-065A1]
HepG2 cells
  IC50: 75.9 µM
HepG2 cells; [3]
  pSI v HepG2: 1.00
[1]
  IC50: 7.59 µM

## O=C(Nc1cc(C(F)(F)F)ccc1Cl)c1ccccc1O [SC/67526]
HepG2 cells
  IC50: 15.1 µM
HepG2 cells; [3]
  pSI v HepG2: 0.46
[1]
  IC50: 5.25 µM
